By EC50 is commonly meant the concentration needed to bring the measured effect to its halfway point. High values mean lower potency in that assay, low ones higher potency in that assay.

The first experiment has as its target AMPK. The experiment can be described thus: AMPK activation, enzyme-linked immunosorbent assay. The conditions noted are these: compounds of Table 1 (Table 6). Type of experiment: biochemical.
For `O=C(NC1CCN(Cc2ccncc2)CC1)c1cc2ccc(OC3CCN(c4ccc(OC(F)(F)F)cc4)CC3)cc2o1` [1-88, N-(1-(pyridin-4-ylmethyl)piperidin-4-yl)-6-(1-(4-(trifluoromethoxy)phenyl)piperidin-4-yloxy)benzofuran-2-carboxamide], the EC50 was below 0.1 µM.

The compound `N#Cc1ccc(CN2CCC(Oc3ccc(S(=O)(=O)NC4CCN(Cc5ccncc5)CC4)cn3)CC2)cc1` [1-53, 6-(1-(4-cyanobenzyl)piperidin-4-yloxy)-N-(1-(pyridin-4-ylmethyl)piperidin-4-yl)pyridine-3-sulfonamide] returned an EC50 of 0.1 to 0.5 µM.

For the compound `N#Cc1ccccc1CN1CCC(NC(=O)c2cc3ccc(OC4CCN(c5ccc(C(F)(F)F)cc5)CC4)cc3s2)CC1` [1-146, N-(1-(2-cyanobenzyl)piperidin-4-yl)-6-(1-(4-(trifluoromethyl)phenyl)piperidin-4-yloxy)benzo[b]thiophene-2-carboxamide], the EC50 lay in the range of 0.1 to 0.5 µM.

Consider `O=C(N[C@H]1CCN(Cc2cccnc2)C1)c1cc2cc(OC3CCN(Cc4ccc(Cl)cc4)CC3)ccc2o1` [1-130, (S)-5-(1-(4-chlorobenzyl)piperidin-4-yloxy)-N-(1-(pyridin-3-ylmethyl)pyrrolidin-3-yl)benzofuran-2-carboxamide], for which the EC50 was 1 to 5 µM.

Consider `O=C(NC1CCN(Cc2ccncc2)CC1)c1cc2cc(OC3CCN(c4ccc(OC(F)(F)F)cc4)CC3)ccc2o1` [1-78, N-(1-(pyridin-4-ylmethyl)piperidin-4-yl)-5-(1-(4-(trifluoromethoxy)phenyl)piperidin-4-yloxy)benzofuran-2-carboxamide], for which the EC50 is below 0.1 µM.

In the case of `O=C(N[C@@H]1CCN(Cc2ccc(F)cc2)C1)c1ccc(OC2CCN(c3ccc(C(F)(F)F)cc3)CC2)cn1` [1-34, (R)-N-(1-(4-fluorobenzyl)pyrrolidin-3-yl)-5-(1-(4-(trifluoromethyl)phenyl)piperidin-4-yloxy)picolinamide], the EC50 lay in the range of 0.5 to 1 µM.

Regarding `N#Cc1ccc(CN2CCC(NC(=O)c3cc4ccc(OC5CCN(c6ccc(OC(F)(F)F)cc6)CC5)cc4o3)CC2)cc1` [1-89, N-(1-(4-cyanobenzyl)piperidin-4-yl)-6-(1-(4-(trifluoromethoxy)phenyl)piperidin-4-yloxy)benzofuran-2-carboxamide], the EC50 is below 0.1 µM.

For `O=C(NC1CCNCC1)c1cc2ccc(OC3CCN(c4ccc(C(F)(F)F)cc4)CC3)cc2s1` [1-141, N-(piperidin-4-yl)-6-(1-(4-(trifluoromethyl)phenyl)piperidin-4-yloxy)benzo[b]thiophene-2-carboxamide], the EC50 was 0.1 to 0.5 µM.

On to `O=C(NC1CCN(Cc2ccc(N3CCOCC3)cc2)CC1)c1ccc(OC2CCN(c3ccc(C(F)(F)F)cc3)CC2)cn1` [1-40, N-(1-(4-morpholinobenzyl)piperidin-4-yl)-5-(1-(4-(trifluoromethyl)phenyl)piperidin-4-yloxy)picolinamide], for which the EC50 is below 0.1 µM.

`O=C(NC1CCN(Cc2cccnc2)CC1)c1sc2cc(OC3CCN(c4ccc(C(F)(F)F)cc4)CC3)ccc2c1Cl` [1-152, 3-chloro-N-(1-(pyridin-3-ylmethyl)piperidin-4-yl)-6-(1-(4-(trifluoromethyl)phenyl)piperidin-4-yloxy)benzo[b]thiophene-2-carboxamide] registered a half-maximal effective concentration (EC50) below 0.1 µM.

Staying with this experiment, now noted: compounds of Table 2 (Table 7).
As to `N#Cc1cccc(S(=O)(=O)N2CCC(NC(=O)c3ccc4[nH]c5c(c4c3)CN(Cc3ccc(C(F)(F)F)cc3)CC5)CC2)c1` [2-29, N-(1-(3-cyanophenyl-sulfonyl)piperidin-4-yl)-2-(4-(trifluoro-methyl)benzyl)-2,3,4,5-tetrahydro-1H-pyrido[4,3-b]indole-8-carboxamide], the EC50 was 1 to 5 µM.

As for `NC(=O)c1ccc(CN2CCc3[nH]c4ccc(C(=O)NC5CCN(Cc6ccncc6)CC5)cc4c3C2)cc1` [2-45, 2-(4-carbamoylbenzyl)-N-(1-(pyridin-4-ylmethyl)piperidin-4-yl)-2,3,4,5-tetrahydro-1H-pyrido [4,3-b]indole-8-carboxamide], the EC50 is above 100 µM.

As to `O=C(NC1CCN(S(=O)(=O)c2ccc(C(F)(F)F)cc2)CC1)c1ccc2[nH]c3c(c2c1)CN(Cc1ccc(C(F)(F)F)cc1)CC3` [2-23, 2-(4-(trifluoromethyl)benzyl)-N-(1-(4-(trifluoromethyl)phenylsulfonyl)piperidin-4-yl)-2,3,4,5-tetrahydro-1H-pyrido[4,3-b]indole-8-carboxamide], the EC50 is 1 to 5 µM.

`O=C(NC1CCN(S(=O)(=O)c2cccc(C(F)(F)F)c2)CC1)c1ccc2[nH]c3c(c2c1)CN(Cc1ccc(C(F)(F)F)cc1)CC3` [2-30, 2-(4-(trifluoromethyl)benzyl)-N-(1-(3-(trifluoromethyl)phenylsulfonyl)piperidin-4-yl)-2,3,4,5-tetrahydro-1H-pyrido[4,3-b]indole-8-carboxamide] gave an EC50 of 1 to 5 µM.

As to `CC(C)(C)OC(=O)N1CCC(NC(=O)c2ccc3[nH]c4c(c3c2)CN(C(=O)OCc2ccccc2)CC4)CC1` [2-3, benzyl 8-(1-(tert-butoxycarbonyl)piperidin-4-ylcarbamoyl)-3,4-dihydro-1H-pyrido[4,3-b]indole-2(5H)-carboxylate], the EC50 lay within 10 to 50 µM.

Still in this experiment, the particulars now being: compounds of Table 3 (Table 8).
The compound `O=C(NC1CCN(Cc2ccc(C(F)(F)F)cc2)CC1)c1ccc2c(c1)CN(Cc1ccc(F)cc1)CC2` [3-36, 2-(4-fluorobenzyl)-N-(1-(4-(trifluoromethyl)benzyl)piperidin-4-yl)-1,2,3,4-tetrahydroisoquinoline-7-carboxamide] gave an EC50 of 0.1 to 1 µM.

The same experiment, now with this note: compounds of Table 4 (Table 9).
`O=C(N[C@H]1CCN(Cc2ccncc2)C1)c1ccc(C(=O)N2CCN(c3ccc(Cl)cc3)CC2)cn1` [4-5, (S)-5-(4-(4-chlorophenyl)piperazine-1-carbonyl)-N-(1-(pyridin-4-ylmethyl)pyrrolidin-3-yl)picolinamide] yielded an EC50 of 1 to 5 µM.

`N#Cc1ccc(CN2CC[C@H](NC(=O)c3ccc(C(=O)N4CCN(c5ccc(Cl)cc5)CC4)cn3)C2)cc1` [4-6, (S)-5-(4-(4-chlorophenyl)piperazine-1-carbonyl)-N-(1-(4-cyanobenzyl)pyrrolidin-3-yl)picolinamide]: the EC50 fell in the range of 0.5 to 1 µM.

Staying with this experiment, now noted: compounds of Table 5 (Table 10).
In the case of `O=C(NC1CCN(c2ccccc2)CC1)c1ccc(OC2CCN(c3ccc(C(F)(F)F)cc3)CC2)c(F)c1` [5-25, 3-fluoro-N-(1-phenylpiperidin-4-yl)-4-(1-(4-(trifluoromethyl)phenyl)piperidin-4-yloxy)benzamide], the EC50 was above 100 µM.

The compound `N#Cc1ccc(CN2CCC(Oc3ccc(C(=O)NC4CCN(Cc5ccc(Cl)cc5)CC4)cc3F)CC2)cc1` [5-70, N-(1-(4-chlorobenzyl)piperidin-4-yl)-4-(1-(4-cyanobenzyl)piperidin-4-yloxy)-3-fluorobenzamide] showed an EC50 below 1 µM.

For the compound `O=C(NC1CCN(Cc2ccccc2)CC1)c1ccc(OC2CCN(Cc3ccc(C(F)(F)F)cc3)CC2)c(Cl)c1` [5-56, N-(1-benzylpiperidin-4-yl)-3-chloro-4-(1-(4-(trifluoromethyl)benzyl)piperidin-4-yloxy)benzamide], the EC50 was below 1 µM.

As for `CC(C)(C)C(=O)N1CCC(NC(=O)c2ccc(OC3CCN(c4ccc(C(F)(F)F)cc4)CC3)c(F)c2)CC1` [5-30, 3-fluoro-N-(1-pivaloylpiperidin-4-yl)-4-(1-(4-(trifluoromethyl)phenyl)piperidin-4-yloxy)benzamide], the EC50 is below 1 µM.

With `CC(C)(C)OC(=O)N1CCC(NC(=O)c2ccc(OC3CCN(c4ccc(C(F)(F)F)cc4)CC3)c(F)c2)CC1` [5-26, tert-butyl 4-(3-fluoro-4-(1-(4-(trifluoromethyl)phenyl)piperidin-4-yloxy)benzamido)piperidine-1-carboxylate], the EC50 was below 1 µM.

`O=C(NC1CCN(Cc2ccccc2)CC1)c1cc(Cl)c(OC2CCN(Cc3cccc(C(F)(F)F)c3)CC2)c(Cl)c1` [5-62, N-(1-benzylpiperidin-4-yl)-3,5-dichloro-4-(1-(3-(trifluoromethyl)benzyl)piperidin-4-yloxy)benzamide] gave an EC50 below 1 µM.

In turn, `O=C(NC1CCN(Cc2ccccc2)CC1)c1cccc(OC2CCN(c3ccccn3)CC2)c1` [5-86, N-(1-benzylpiperidin-4-yl)-3-(1-(pyridin-2-yl)piperidin-4-yloxy)benzamide] came in with an EC50 below 1 µM.

Take `O=C(NC1CCN(Cc2ccccc2)CC1)c1ccc(OC2CCN(Cc3cccc(C(F)(F)F)c3)CC2)c(Cl)c1` [5-60, N-(1-benzylpiperidin-4-yl)-3-chloro-4-(1-(3-(trifluoromethyl)benzyl)piperidin-4-yloxy)benzamide]: the half-maximal effective concentration (EC50) was below 1 µM.

`O=C(NC1CCN(Cc2ccccc2)CC1)c1cccc(OC2CCN(c3ccc(C(F)(F)F)cc3)CC2)c1` [5-46, N-(1-benzylpiperidin-4-yl)-3-(1-(4-(trifluoromethyl)phenyl)piperidin-4-yloxy)benzamide] showed an EC50 below 1 µM.

Regarding `N#Cc1ccc(CN2CCC(Oc3c(Cl)cc(C(=O)NC4CCN(Cc5ccccc5)CC4)cc3Cl)CC2)cc1` [5-77, N-(1-benzylpiperidin-4-yl)-3,5-dichloro-4-(1-(4-cyanobenzyl)piperidin-4-yloxy)benzamide], the EC50 was below 1 µM.

Consider `CN1CCC(NC(=O)c2ccc(OC3CCN(Cc4ccc(C(F)(F)F)cc4)CC3)c(Cl)c2)CC1` [5-58, 3-chloro-N-(1-methylpiperidin-4-yl)-4-(1-(4-(trifluoromethyl)benzyl)piperidin-4-yloxy)benzamide], for which the EC50 lay within 1 to 10 µM.

Consider `O=C(NC1CCN(Cc2ccccc2)CC1)c1ccc(OC2CCN(Cc3ccncc3)CC2)c(Cl)c1` [5-6, N-(1-benzylpiperidin-4-yl)-3-chloro-4-(1-(pyridin-4-ylmethyl)piperidin-4-yloxy)benzamide], for which the EC50 is below 1 µM.

For `O=C(NC1CCN(Cc2ccccc2)CC1)c1ccc(OC2CCN(Cc3ccc(F)c(F)c3)CC2)c(Cl)c1` [5-74, N-(1-benzylpiperidin-4-yl)-3-chloro-4-(1-(3,4-difluorobenzyl)piperidin-4-yloxy)benzamide], the EC50 was below 1 µM.

On to `N#Cc1ccc(N2CCC(Oc3cccc(C(=O)NC4CCN(Cc5ccccc5)CC4)c3)CC2)cc1` [5-48, N-(1-benzylpiperidin-4-yl)-3-(1-(4-cyanophenyl)piperidin-4-yloxy)benzamide], for which the EC50 was below 1 µM.

Source of the values: patent US9511058B2, “Methods for using carboxamide, sulfonamide and amine compounds” (Rigel Pharmaceuticals, Inc., priority 2010, dated 2016).
